# From US7381521B2, “Anti-pathogenic composition useful in blood preservation” (Altachem Pharma Ltd., priority 2001, dated 2008)
# Values joined by “and” are separate entries in the source; they are usually repeats but may differ in a detail not shown here. Equal entries are not always repeated.
# Experiments:
# [1] = test system: erythrocytes in heparinized bovine blood; experiment: In-vitro hemolysis of erythrocytes in heparinized whole blood, absorbance at 413 nm; settings: 1 hour at 37° C.
# Experimental: The effect of the compounds on the in-vitro hemolysis of erythrocytes in heparinized whole blood is monitored by a spectrophotometric method.
# Various formulations and concentrations of the test compound are added to heparinized bovine blood and mixed gently in a 1.5 ml microcentrifuge tube. The sample is allowed to incubate for 1 hour at 37° C. At the end of incubation, the samples are removed from the incubator and centrifuged at 2000 rpm for 5 minutes. A 200 μl aliquot of the supernatant is removed from each sample into a 96 well microtiter plate and read at 413 nm. The absorbance of the test sample is compared to the control sample containing phosphate buffered saline, pH 7.2.
# [2] = test system: S. aureus ATCC 6538; experiment: Test 2 (DGHM), action as a function of disinfection time at 22° C., 8 × 10^8 organisms/ml; assay type: cell-based, Staphylococcus aureus
# Experimental: (§1) Another test was carried out a basis of the following solutions • 100 ml of a 0.1% solution of chlorohexidine digluconate (pH 6); and • 100 ml of a 0.1% solution of Bardac22®.
# (§2) The activity of these solutions, alone or in combination, was more particularly tested in respect of Staphylococcus aureus ATCC 6538, Escherichia coli ATCC 11229 and Candida albicans ATCC 10231.
# (§3) The tests were conducted in accordance with the procedure described in Chapter I/2.1 and 2.2 of Tichtlinien für die Prüfung und Bewertung chemischer Desinfektionsverfahren der DGHM/Guidelines for Testing and Evaluating Chemical Disinfection Processes of DGHM as at 1.1, 1981.
# [3] = test system: C. albicans ATCC 1031; experiment: Test 2 (DGHM), action as a function of disinfection time at 22° C., 8 × 10^7 organisms/ml; assay type: cell-based, Candida albicans
# Experimental: as §1, §2, §3
# [4] = test system: human fibroblastic cells; experiment: Cytotoxicity check of the products on human fibroblastic cells; assay type: cell-based; settings: 0.04% solution at a dilution of 10^−3; 0.1 ml in 1 ml medium; 3 days
# Experimental: Cytotoxicity checks are conducted on the products for cellular cultures used in the tests, that is to say the human fibroblastic cells.
# The cells are cultivated on a Dulbecco medium enriched with 10% fetal calf serum; at the moment of their use, the cells are washed and the same culture medium is used but without calf serum.
# For each product tested or each composition, 10 tubes of cellular culture were used and after inoculation of the product, the tubes were kept under observation for 3 days.
# Each product was, in succession, used pure and at dilutions of 10^−1, 10^−2, 10^−3 and added to culture tubes containing 1 ml of nutrient medium in a volume of 0.1 ml.
# [5] = test system: E. coli ATCC 11229; experiment: Test 2 (DGHM), growth inhibition by dilutions, 72 hours at 37° C.; assay type: cell-based, Escherichia coli
# Experimental: as §1, §2, §3
# Tables IX, X and XI respectively illustrate the bactericidal and fungicidal activity of a 0.1% aqueous solution of chlorohexidine digluconate, a 0.1% aqueous solution of Bardac22® and a mixture of equal parts of both compounds. The procedures of which these Tables illustrate the results comprise incubation of 72 hours at 37° C. and the use of the following inactivating substances as controls: • A: 3% Tween®80+0.3% lecithin+0.1% cysteine • B: 3% Tween®80+3% saponin+0.1% cysteine+0.1% histidine; • C: 3% Tween®80+0.3% lecithin+0.1% histidine+0.5% sodium thiosulphate.
# In these Tables, the sign “+” indicates an increase and the sign “−” denotes the absence of growth.
structure (smiles),measurement,setting,value
"CCCCCCCCCC[N+](C)(C)CCCCCCCCCC.[Cl-] [Bardac ®, didecyl dimethyl ammonium chloride]",Concentration at which hemolysis is not observed,[1],0.001% and 0.0125% and 0.0005%
same,growth,"[2]; 0.05% vol/vol, 1 min",+
same,growth,"[2]; 0.05% vol/vol, 3 min",+
same,growth,"[2]; 0.05% vol/vol, 5 min",+
same,growth,"[2]; 0.05% vol/vol, 15 min",+
same,growth,"[2]; 0.05% vol/vol, 30 min",+
same,growth,"[2]; 0.05% vol/vol, 60 min",+
same,growth,"[2]; 0.1% vol/vol, 1 min",+
same,growth,"[2]; 0.1% vol/vol, 3 min",+
same,growth,"[2]; 0.1% vol/vol, 5 min",+
same,growth,"[2]; 0.1% vol/vol, 15 min",+
same,growth,"[2]; 0.1% vol/vol, 30 min",+
same,growth,"[2]; 0.1% vol/vol, 60 min",+
same,growth,"[2]; 0.5% vol/vol, 1 min",+
same,growth,"[2]; 0.5% vol/vol, 3 min",+
same,growth,"[2]; 0.5% vol/vol, 5 min",+
same,growth,"[2]; 0.5% vol/vol, 15 min",+
same,growth,"[2]; 0.5% vol/vol, 30 min",+
same,growth,"[2]; 0.5% vol/vol, 60 min",+
same,growth,"[2]; 1% vol/vol, 1 min",+
same,growth,"[2]; 1% vol/vol, 3 min",+
same,growth,"[2]; 1% vol/vol, 5 min",+
same,growth,"[2]; 1% vol/vol, 15 min",+
same,growth,"[2]; 1% vol/vol, 30 min",−
same,growth,"[2]; 1% vol/vol, 60 min",−
same,growth,"[2]; 5% vol/vol, 1 min",+
same,growth,"[2]; 5% vol/vol, 3 min",+
same,growth,"[2]; 5% vol/vol, 5 min",+
same,growth,"[2]; 5% vol/vol, 15 min",−
same,growth,"[2]; 5% vol/vol, 30 min",−
same,growth,"[2]; 5% vol/vol, 60 min",−
same,growth,"[2]; 10% vol/vol, 1 min",+
same,growth,"[2]; 10% vol/vol, 3 min",−
same,growth,"[2]; 10% vol/vol, 5 min",−
same,growth,"[2]; 10% vol/vol, 15 min",−
same,growth,"[2]; 10% vol/vol, 30 min",−
same,growth,"[2]; 10% vol/vol, 60 min",−
same,growth,"[2]; 25% vol/vol, 1 min",+
same,growth,"[2]; 25% vol/vol, 3 min",−
same,growth,"[2]; 25% vol/vol, 5 min",−
same,growth,"[2]; 25% vol/vol, 15 min",−
same,growth,"[2]; 25% vol/vol, 30 min",−
same,growth,"[2]; 25% vol/vol, 60 min",−
same,growth,"[3]; 0.05% vol/vol, 1 min",+
same,growth,"[3]; 0.05% vol/vol, 3 min",+
same,growth,"[3]; 0.05% vol/vol, 5 min",+
same,growth,"[3]; 0.05% vol/vol, 15 min",+
same,growth,"[3]; 0.05% vol/vol, 30 min",+
same,growth,"[3]; 0.05% vol/vol, 60 min",+
same,growth,"[3]; 0.1% vol/vol, 1 min",+
same,growth,"[3]; 0.1% vol/vol, 3 min",+
same,growth,"[3]; 0.1% vol/vol, 5 min",+
same,growth,"[3]; 0.1% vol/vol, 15 min",+
same,growth,"[3]; 0.1% vol/vol, 30 min",+
same,growth,"[3]; 0.1% vol/vol, 60 min",+
same,growth,"[3]; 0.5% vol/vol, 1 min",+
same,growth,"[3]; 0.5% vol/vol, 3 min",+
same,growth,"[3]; 0.5% vol/vol, 5 min",+
same,growth,"[3]; 0.5% vol/vol, 15 min",+
same,growth,"[3]; 0.5% vol/vol, 30 min",+
same,growth,"[3]; 0.5% vol/vol, 60 min",+
same,growth,"[3]; 1% vol/vol, 1 min",+
same,growth,"[3]; 1% vol/vol, 3 min",+
same,growth,"[3]; 1% vol/vol, 5 min",+
same,growth,"[3]; 1% vol/vol, 15 min",+
same,growth,"[3]; 1% vol/vol, 30 min",−
same,growth,"[3]; 1% vol/vol, 60 min",−
same,growth,"[3]; 5% vol/vol, 1 min",+
same,growth,"[3]; 5% vol/vol, 3 min",+
same,growth,"[3]; 5% vol/vol, 5 min",−
same,growth,"[3]; 5% vol/vol, 15 min",−
same,growth,"[3]; 5% vol/vol, 30 min",−
same,growth,"[3]; 5% vol/vol, 60 min",−
same,growth,"[3]; 10% vol/vol, 1 min",−
same,growth,"[3]; 10% vol/vol, 3 min",−
same,growth,"[3]; 10% vol/vol, 5 min",−
same,growth,"[3]; 10% vol/vol, 15 min",−
same,growth,"[3]; 10% vol/vol, 30 min",−
same,growth,"[3]; 10% vol/vol, 60 min",−
same,growth,"[3]; 25% vol/vol, 1 min",−
same,growth,"[3]; 25% vol/vol, 3 min",−
same,growth,"[3]; 25% vol/vol, 5 min",−
same,growth,"[3]; 25% vol/vol, 15 min",−
same,growth,"[3]; 25% vol/vol, 30 min",−
same,growth,"[3]; 25% vol/vol, 60 min",−
same,toxicity for the cell cultures,[4],not toxic
same,concentration of active substance inhibiting growth,[5],0.0005%
same,dilution of the 0.1% solution inhibiting growth,[5],0.5%
same,growth,"[5]; 0.00625% vol/vol, inactivator A",+
same,growth,"[5]; 0.00625% vol/vol, inactivator B",+
same,growth,"[5]; 0.00625% vol/vol, inactivator C",+
same,growth,"[5]; 0.00625% vol/vol, no inactivator",+
same,growth,"[5]; 0.0125% vol/vol, inactivator A",+
same,growth,"[5]; 0.0125% vol/vol, inactivator B",+
same,growth,"[5]; 0.0125% vol/vol, inactivator C",+
same,growth,"[5]; 0.0125% vol/vol, no inactivator",+
same,growth,"[5]; 0.025% vol/vol, inactivator A",+
same,growth,"[5]; 0.025% vol/vol, inactivator B",+
same,growth,"[5]; 0.025% vol/vol, inactivator C",+
same,growth,"[5]; 0.025% vol/vol, no inactivator",+
same,growth,"[5]; 0.05% vol/vol, inactivator A",+
same,growth,"[5]; 0.05% vol/vol, inactivator B",+
same,growth,"[5]; 0.05% vol/vol, inactivator C",+
same,growth,"[5]; 0.05% vol/vol, no inactivator",+
same,growth,"[5]; 0.1% vol/vol, inactivator A",+
same,growth,"[5]; 0.1% vol/vol, inactivator B",+
same,growth,"[5]; 0.1% vol/vol, inactivator C",+
same,growth,"[5]; 0.1% vol/vol, no inactivator",+
same,growth,"[5]; 0.5% vol/vol, inactivator A",+
same,growth,"[5]; 0.5% vol/vol, inactivator B",+
same,growth,"[5]; 0.5% vol/vol, inactivator C",+
same,growth,"[5]; 0.5% vol/vol, no inactivator",−
same,growth,"[5]; 1.0% vol/vol, inactivator A",+
same,growth,"[5]; 1.0% vol/vol, inactivator B",+
same,growth,"[5]; 1.0% vol/vol, inactivator C",+
same,growth,"[5]; 1.0% vol/vol, no inactivator",−
